In assay [1] the test system is Ang-(1–7) peptidase, partially purified fraction from brain medulla. The conditions noted are these: ref [15], cited from earlier work.
The subject of assay [2] is DPP 3. The conditions noted are these: ref [2],[15]; cited from earlier work.
Assay [3] addresses Ang-(1–7) peptidase in renal tubules. The conditions noted are these: JMV-390, ref [15],[25]; cited from earlier work.
The test system of assay [4] is DPP 3 activity in HK-2 cells. In words: ^125I-Ang-. Type of assay: cell-based, human. The conditions noted are these: for peptidase activity: mean±SEM, control 136±6.
Assay [5] concerns TOP expressed in the HK-2 cells. The conditions noted are these: high dose of JMV-390; ref [25]; cited from earlier work.
Assay [6] has as its target Ang-(1–7) peptidase, partially purified fraction from brain medulla. The conditions noted are these: JMV-390; brain medulla Ang-(1–7) peptidase; ref [15]; cited from earlier work.
The target of assay [7] is T1, human DPP 3 (Homo sapiens, UniProt Q9NY33).
T1 sequence (Q9NY33 1-737): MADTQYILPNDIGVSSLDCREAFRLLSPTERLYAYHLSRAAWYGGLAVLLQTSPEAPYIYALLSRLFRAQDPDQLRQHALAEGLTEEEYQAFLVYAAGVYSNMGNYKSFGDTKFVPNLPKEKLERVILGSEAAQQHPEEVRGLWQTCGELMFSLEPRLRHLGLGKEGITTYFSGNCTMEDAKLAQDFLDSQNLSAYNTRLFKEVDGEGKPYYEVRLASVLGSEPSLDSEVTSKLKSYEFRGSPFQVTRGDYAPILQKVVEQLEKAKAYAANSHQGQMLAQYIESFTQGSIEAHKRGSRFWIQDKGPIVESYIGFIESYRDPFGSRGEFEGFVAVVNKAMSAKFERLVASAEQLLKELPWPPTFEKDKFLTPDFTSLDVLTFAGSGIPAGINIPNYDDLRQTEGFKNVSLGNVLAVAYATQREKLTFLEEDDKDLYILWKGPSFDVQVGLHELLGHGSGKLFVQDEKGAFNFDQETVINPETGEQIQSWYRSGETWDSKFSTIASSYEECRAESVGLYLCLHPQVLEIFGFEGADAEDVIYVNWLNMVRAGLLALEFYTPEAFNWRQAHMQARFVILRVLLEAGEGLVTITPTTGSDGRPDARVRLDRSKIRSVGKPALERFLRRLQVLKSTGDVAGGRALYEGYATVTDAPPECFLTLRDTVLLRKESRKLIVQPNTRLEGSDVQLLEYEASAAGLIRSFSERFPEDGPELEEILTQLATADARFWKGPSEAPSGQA
In words: JMV-390 inhibition of ^125I-Ang-. It is filed as biochemical. The conditions noted are these: JMV-390, Fig. 3: 0.5 and 10 nM.

For assay [8], the system named is HK-2 cells. In words: Intracellular Ang-. Type of assay: cell-based, human.
Assay [9] concerns purified Ang-(1–7) peptidase from HK-2 cells. In words: JMV-390 inhibition of ^125I-Ang-. Type of assay: biochemical, human. The conditions noted are these: JMV-390, Fig. 3: 0.5 and 10 nM.
In assay [10] the target is T1, human DPP 3. Put plainly: Metabolism of unlabeled Ang-. Type of assay: biochemical. The conditions noted are these: 100 μM Ang-(1–7), 37 °C, HPLC-UV.
Assay [11] has as its system Ang-(1–7) RIA. The conditions noted are these: as previously described; ref [27]; cited from earlier work.
In assay [12] the test system is HK-2 peptidase. The conditions noted are these: ref [25]; cited from earlier work.
Assay [13] deals with T1, human DPP 3. Put plainly: Kinetic studies of Ang-. It is filed as biochemical. The conditions noted are these: 37 °C, n=3.

Where “and” joins values, the source holds several entries; their conditions need not be identical. Equal values may be shown once. Entries after “also recorded” stand apart in the source; their conditions may differ. Where only a bound is given, the exact number is not on record here.

As to apelin 13, in assay [1], the “metabolism by enriched peptidase” value was “failed to metabolize”.
As to `O=C(O)c1cc[c]([Hg][Cl])cc1` [PCMB], in [2], the “sensitivity of DPP 3 to thiol inhibitors and chelating agents” value was “unusual sensitivity”.
Broadly, the IC50 is the concentration at which inhibition is half-maximal. As to `CC[C@H](C)[C@H](NC(=O)[C@@H](CC(=O)NO)Cc1ccccc1)C(=O)N[C@@H](CC(C)C)C(=O)O` [JMV-390], the 50% inhibitory concentration (IC50) in assay [3] is approximately 1 nM; in [6], less than 1 nM. Moreover, the peptidase activity in assay [4] (20 nM JMV-390, 72 h, n = 2) was 76 ± 13 fmol/min/mg; in assay [4] (200 nM JMV-390, 72 h, n = 3, p<0.05), 17 ± 3 fmol/min/mg. In addition, the “reduction of peptidase (DPP 3) activity” value in assay [4] (200 nM JMV-390, 72 h, vs control, n = 3, p<0.05) is 85% and > 80%. Besides, the “effect on metabolism of ^125I-Ang-(1–7) to ^125I-Ang-(3-4)” value in assay [4] (20 or 200 nM JMV-390, 72 h, 100,000 × g cytosolic fraction) was “significantly reduced the metabolism”. The “direct conversion of ^125I-Ang I to ^125I-Ang-(1–7) by TOP” value in [5] is given as “inhibited the direct conversion”. Further, in assay [7], the “effect on Ang-(1–7) hydrolysis by DPP 3” value is “abolished; also recorded: attenuated the metabolism”. For the same compound, the “effect on intracellular content of Ang-(1–7)” value in assay [8] (20 nM JMV-390, 72 h) was “tended to augment the cellular levels of Ang-(1–7); also recorded: increased the intracellular content of Ang-(1–7)”; in [8] (200 nM JMV-390, 72 h), “significantly decreased the content of Ang-(1–7)”. The “increase in Ang-(1–7) content” value in assay [8] (20 nM JMV-390, 72 h, vs basal, n = 3, not statistically significant) is recorded as 68%. Also, the “Ang-(1–7) content” value in assay [8] (200 nM JMV-390, 72 h, RIA, mean±SEM, n = 3, p<0.05 vs 20 nM JMV-390, basal 22 ±2) worked out at 15 ±3 fmols/mg protein. Further, the “increase in cellular levels of Ang-(1–7)” value in assay [8] (lower dose (20 nM) of JMV-390, not statistically significant) is “approximately 2 fold”. In assay [9], the “effect on Ang-(1–7) hydrolysis by purified Ang-(1–7) peptidase” value is given as “abolished; also recorded: attenuated the metabolism”. The “metabolism of unlabeled Ang-(1–7) to Ang-(5–7) in presence of inhibitor” value in assay [10] (JMV-390 1 μM, 100 ng DPP 3, 60 min) is given as “attenuated the metabolism of Ang-(1–7)”.
Turning to APMA, the “sensitivity of DPP 3 to thiol inhibitors and chelating agents” value in assay [2] was “unusual sensitivity”.
On to “bradykinin (RPPGFSPFR; Bradykinin; UniProt P01042 381-389, looked up)”, for which, in assay [1], the “metabolism by enriched peptidase” value was “failed to metabolize”.
Turning to “Ang-(2–7): angiotensin peptide recognized by the Ang-(1–7) RIA (RVYIHP; UniProt P01019 26-31, looked up, fragment)”, the “recognition by Ang-(1–7) RIA” value in assay [11] is “recognizes”.
As for `O=C(O)CN(CCN(CC(=O)O)CC(=O)O)CC(=O)O` [EDTA], the “sensitivity of DPP 3 to thiol inhibitors and chelating agents” value in assay [2] is listed as “unusual sensitivity”.
As for `c1cnc2c(c1)ccc1cccnc12` [ophenanthroline], the “sensitivity of DPP 3 to thiol inhibitors and chelating agents” value in [2] is given as “unusual sensitivity”.
For the compound [Abz-Asp^1, Tyr (NO2)^7]-Ang-(1–7)], the “hydrolysis by HK-2 peptidase” value in assay [12] is recorded as “resistant”.
With neurotensin, in [1], the “metabolism by enriched peptidase” value was “failed to metabolize”.
For orientation: kcat means the number of substrate molecules converted per active site and unit of time at saturation. Take Angiotensin-(1–7) [Ang-(1–7)]: the “hydrolysis rate, fold higher than Ang II” value in [1] (enriched brain medulla peptidase) was 12 fold. Besides, the turnover number (kcat) in [13] was determined as 7.3 s⁻¹. For the same compound, the “product of unlabeled Ang-(1–7) hydrolysis” value in assay [10] (100 ng human DPP 3, 60 min) was “a major peak corresponding to the metabolite Ang-(5–7)”.
Regarding “Ang II: angiotensin peptide (DRVYIHPF; Angiotensin-2; UniProt P01019 25-32, looked up)”, the “recognition by Ang-(1–7) RIA (cross-reactivity)” value in [11] is less than 0.01%.

Source of the values: publication PMC5500233 (Peptides, 2016).
